EP1900728A1 (Genecare Research Institute Co., Ltd, priority 2005, dated 2006)
Read-outs that look alike come from different tables or passages of the source.

What was measured:
[1] = biological target: T1, IκBα ubiquitinating enzyme (SCF complex: ROC1, Cullin1, Skp1, His-TrCP1; with E1, UbcH5b) (Homo sapiens, UniProt P62877+P63208+Q13616+Q9Y297); assay: Measurement of ubiquitinating enzyme activity (IκBα ubiquitination, time-resolved fluorescence with Eu(K)-labeled ubiquitin and XL665-labeled anti-GST antibody); assay type: biochemical
T1 construct: His (polyhistidine); made in house; host or cells: insect cells (baculovirus) for the SCF complex and His-E1; E. coli for His-UBCH5b
In short: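 Human SCF complex with E1 and UbcH5b ubiquitinated GST-IκBα pre-phosphorylated by IKKβ (2 mM ATP, pH 7.4, 1 h, RT), with Eu(K)-ubiquitin, 30 min RT. Stopped with EDTA, XL665 anti-GST added for 2 h; 665/620 nm TR-FRET ratio. % inhibition versus no-compound control and no-SCF blank gave IC50.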

[2] = system: ICAM-1 expression in HT-29 cells; assay: Measurement of ICAM-1 expressing activity (TNFα-induced ICAM-1 expression, cell ELISA); assay type: cell-based; settings: Homo sapiens, Table 6, cell activity inhibition test by method (3), read-out: EVALUATION (IC50 class, inhibition of cell activity)
Procedure: Method 2: Measurement of ICAM-1 expressing activity
2.0 x 10^4 HT-29 cells (ATCC) were plated onto a 96-well plate, and the cells were cultured for 48 hours using a McCoy' 5A medium (GIBCO) containing 10% inactivated fetal calf serum. The culture medium was removed, a culture medium containing a compound to be evaluated (final DMSO concentration of 0.5%) was added, and this was incubated at 37°C for 30 minutes. Thirty ng/mL of human TNFα (GIBCO) was added, and this was incubated at 37°C for 4 hours. After washing once with a washing solution (PBS containing 0.05% Tween 20), ice-cooled methanol was added, and this was left on ice for 10 minutes and then fixed. After removing methanol, PBS containing 1% BSA was added, and blocking was performed by letting this stand at room temperature for 30 minutes. Anti-ICAM-1 antibody (Santa Cruz Biotechnology) was added, and this was left to stand at room temperature for 1 hour. After washing with the washing solution, POD-labeled secondary antibody was added, and this was left to stand at room temperature for 30 minutes. This was washed, 100 µL of 100 mM citric acid buffer (pH4.2) containing 1 mM TMBZ and 0.03% H2O2 was added, and this was reacted at room temperature for 15 minutes. The reaction was terminated with 100 µL of 2 N H2SO4, and the absorbance at 450 nm was measured using ARVO-HTS (Perkin Elmer).
When cells are stimulated with TNFα, IκBα is degraded after ubiquitination resulting in the activation of NFκB and the promotion of the expression of adhesion factor ICAM-1. Therefore, the suppression of ICAM-1 expression described above serves as an indicator to determine the effectiveness of the compound in the cells.

[3] = enzyme activity inhibition test, method (1), Table 5, read-out: EVALUATION

T1 sequence (Q9Y297 whole entry): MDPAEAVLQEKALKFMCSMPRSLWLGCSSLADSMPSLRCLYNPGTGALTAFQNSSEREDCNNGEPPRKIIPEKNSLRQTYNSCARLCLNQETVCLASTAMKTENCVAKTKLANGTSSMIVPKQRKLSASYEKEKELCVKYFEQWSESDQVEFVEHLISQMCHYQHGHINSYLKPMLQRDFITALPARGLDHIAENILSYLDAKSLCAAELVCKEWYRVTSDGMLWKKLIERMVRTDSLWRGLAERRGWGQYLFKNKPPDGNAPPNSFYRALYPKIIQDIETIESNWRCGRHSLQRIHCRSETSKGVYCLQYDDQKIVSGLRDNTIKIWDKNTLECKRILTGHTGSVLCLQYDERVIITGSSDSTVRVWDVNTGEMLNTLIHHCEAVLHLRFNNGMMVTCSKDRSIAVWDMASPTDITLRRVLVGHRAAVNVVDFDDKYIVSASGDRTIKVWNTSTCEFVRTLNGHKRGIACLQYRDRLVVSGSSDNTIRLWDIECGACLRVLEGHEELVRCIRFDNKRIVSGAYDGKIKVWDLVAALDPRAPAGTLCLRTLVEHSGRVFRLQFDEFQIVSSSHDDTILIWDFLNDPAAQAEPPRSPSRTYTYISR
T1 sequence (Q13616 whole entry): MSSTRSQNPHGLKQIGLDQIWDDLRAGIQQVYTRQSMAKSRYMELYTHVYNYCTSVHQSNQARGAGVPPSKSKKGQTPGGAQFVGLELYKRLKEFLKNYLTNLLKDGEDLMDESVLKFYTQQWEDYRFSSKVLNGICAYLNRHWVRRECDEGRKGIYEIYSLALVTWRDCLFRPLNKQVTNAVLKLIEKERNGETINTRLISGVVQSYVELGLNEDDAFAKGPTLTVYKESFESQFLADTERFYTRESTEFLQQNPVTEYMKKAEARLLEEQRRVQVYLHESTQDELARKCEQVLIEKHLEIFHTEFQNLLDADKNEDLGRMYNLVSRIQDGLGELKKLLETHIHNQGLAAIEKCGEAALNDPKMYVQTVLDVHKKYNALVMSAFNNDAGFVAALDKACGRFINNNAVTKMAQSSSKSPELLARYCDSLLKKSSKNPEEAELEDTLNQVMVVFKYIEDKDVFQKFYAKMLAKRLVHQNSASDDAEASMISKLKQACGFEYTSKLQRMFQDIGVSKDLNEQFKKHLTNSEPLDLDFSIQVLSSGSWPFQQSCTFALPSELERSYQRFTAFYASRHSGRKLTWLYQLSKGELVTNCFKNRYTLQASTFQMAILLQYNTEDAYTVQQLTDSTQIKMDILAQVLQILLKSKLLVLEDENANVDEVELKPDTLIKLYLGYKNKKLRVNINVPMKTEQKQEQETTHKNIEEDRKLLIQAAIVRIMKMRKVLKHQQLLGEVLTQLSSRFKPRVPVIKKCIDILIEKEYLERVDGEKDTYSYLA
T1 sequence (P63208 whole entry): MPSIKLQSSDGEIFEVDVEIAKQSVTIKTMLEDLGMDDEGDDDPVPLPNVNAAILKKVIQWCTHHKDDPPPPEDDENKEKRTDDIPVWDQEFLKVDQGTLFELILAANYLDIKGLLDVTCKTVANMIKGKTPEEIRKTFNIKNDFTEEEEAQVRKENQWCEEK
T1 sequence (P62877 whole entry): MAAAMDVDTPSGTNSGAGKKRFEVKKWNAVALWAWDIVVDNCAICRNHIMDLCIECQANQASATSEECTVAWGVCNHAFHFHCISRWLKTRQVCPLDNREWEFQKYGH

Row | Compound | IC50 [1, 3] [µM] | IC50 [2] [µM] | IC50 [1] [µM] | IC50 ([1]; read-out: EVALUATION, enzyme activity inhibition test, method (1), Table 5) [µM]
1 | CCCCC1=NN(c2ccc(C(=O)O)cc2)C(=O)/C1=C\c1ccc2c(c1)OCCO2 [Compound 303] | < 10 | < 10 |  | 
2 | COCC1=NN(c2ccc(C(=O)O)cc2)C(=O)/C1=C\c1ccc2c(c1)OCO2 [Compound 464] | 10 to 20 | < 40 |  | 
3 | CC1=NN(c2ccc(C(=O)O)cc2)C(=O)/C1=C\c1ccc(N2CCCCC2)cc1 [Compound 350] | < 10 | < 40 |  | 
4 | COc1cc(/C=C2\C(=O)N(c3ccc(C(=O)O)cc3)N=C2C2CC2)ccc1OCc1ccccc1 [Compound 314] | < 10 | 10 to 20 |  | 
5 | O=C(O)c1cccc(N2N=C(c3ccoc3)/C(=C/c3ccc(-c4cnn(Cc5ccccc5)c4)o3)C2=O)c1 [Compound 490] | < 10 | 10 to 20 |  | 
6 | CC1=NN(c2ccc(C(=O)O)cc2)C(=O)/C1=C\c1ccc(OCC(=O)N2CCOCC2)cc1 [Compound 538] | < 10 | < 40 |  | 
7 | CC1=NN(c2ccc(S(N)(=O)=O)cc2)C(=O)/C1=C\c1ccc(OCC(=O)O)cc1 [Compound 214] | 10 to 20 | < 40 |  | 
8 | CC1=NN(c2ccc(C(=O)O)cc2)C(=O)/C1=C\c1ccc(Oc2ccccc2)cc1 [Compound 539] | < 10 | < 10 |  | 
9 | O=C1/C(=C\c2ccc(CO)o2)C(Cc2ccccc2)=NN1c1ccccc1 [Compound 27] | < 10 | 10 to 20 |  | 
10 | COC(=O)N1CCN(c2ccc(C=C3C(=O)N(c4ccc(C(=O)O)cc4)N=C3c3cccnc3)cc2)CC1 [Compound 307] |  | < 40 | 10 to 20 | 
11 | CC1=NN(c2cccc(C(=O)O)c2)C(=O)/C1=C\c1ccc([N+](=O)[O-])o1 [Compound 425] | < 10 | 10 to 20 |  | 
12 | CC1=NN(c2ccc(C(=O)O)cc2)C(=O)/C1=C\c1ccc(NC(=O)c2ccccc2)cc1 [Compound 544] | < 10 | < 40 |  | 
13 | O=C(O)c1ccc(N2N=C(C3CC3)/C(=C/c3ccc(N4CCCC4)cc3)C2=O)cc1 [Compound 317] | 10 to 20 | 10 to 20 |  | 
14 | COc1ccc(C2=NN(c3ccccc3)C(=O)/C2=C\c2ccc3c(c2)OCCO3)cc1OC [Compound 37] | 10 to 20 | < 40 |  | 
15 | CC1=NN(c2ccc(C(=O)N(C)CCO)cc2)C(=O)/C1=C\c1ccc2c(c1)OCCO2 [Compound 412] | 10 to 20 | 10 to 20 |  | 
16 | CC1=NN(c2ccccc2)C(=O)C1=Cc1ccc(Oc2ccccc2)cc1 [Compound 212] |  | 10 to 20 | 10 to 20 | 
17 | COC(=O)N1CCN(c2ccc(C=C3C(=O)N(c4ccccc4)N=C3Cc3ccccc3)cc2)CC1 [Compound 25] |  | < 40 | 10 to 20 | 
18 | O=C(O)c1ccc(N2N=C(Cc3ccccc3)/C(=C/c3ccc(-n4ccnc4)cc3)C2=O)cc1 [Compound 271] | 10 to 20 | < 40 |  | 
19 | CC1=NN(c2ccc(S(N)(=O)=O)cc2)C(=O)/C1=C\c1ccc2cc[nH]c2c1 [Compound 148] | < 10 | < 40 |  | 
20 | CC1=NN(c2ccc(C(=O)O)cc2)C(=O)/C1=C\c1ccc2c(ccn2Cc2cc(C)on2)c1 [Compound 496] | < 10 | < 40 |  | 
21 | COCC1=NN(c2ccccc2)C(=O)/C1=C\c1ccc2ccccc2c1 [Compound 2] | 10 to 20 | 10 to 20 |  | 
22 | CCCCC1=NN(c2ccc(C(=O)O)cc2)C(=O)/C1=C\c1ccc(-n2cncn2)cc1 [Compound 306] | 10 to 20 | 10 to 20 |  | 
23 | O=C1/C(=C\c2ccc3c(c2)OCCO3)C(Cc2ccccc2)=NN1c1ccccc1 [Compound 29] | 10 to 20 | 10 to 20 |  | 

Row | Compound | IC50 [1, 3] [µM] | IC50 [2] [µM] | IC50 [1] [µM] | IC50 ([1]; read-out: EVALUATION, enzyme activity inhibition test, method (1), Table 5) [µM]
24 | O=C(O)c1ccc(N2N=C(c3ccoc3)/C(=C/c3ccc(-n4ccnc4)cc3)C2=O)cc1 [Compound 250] | < 10 | < 40 |  | 
25 | COc1cc(/C=C2\C(=O)N(c3ccc(C(=O)O)cc3)N=C2C)ccc1OCC1CC1 [Compound 390] | < 10 | 10 to 20 |  | 
26 | CC1=NN(c2ccc(S(N)(=O)=O)cc2)C(=O)/C1=C\c1ccc(-c2ccccc2)cc1 [Compound 117] | < 10 | 10 to 20 |  | 
27 | CC1=NN(c2ccc(C(=O)O)cc2)C(=O)/C1=C\c1ccc2ccccc2c1 [Compound 253] | < 10 | 10 to 20 |  | 
28 | O=C(O)c1ccc(N2N=C(c3ccoc3)/C(=C/c3ccc(N4CCCC4)cc3)C2=O)cc1 [Compound 248] | < 10 | 10 to 20 |  | 
29 | O=C(O)c1ccc(N2N=C(c3ccccn3)/C(=C/c3ccc(-c4ccccc4F)o3)C2=O)cc1 [Compound 290] | < 10 | 10 to 20 |  | 
30 | COc1cc(/C=C2/C(=O)N(C3CCCCC3)N=C2C)ccc1O [Compound 199] | 10 to 20 | < 10 |  | 
31 | CC1=NN(c2cccc(S(N)(=O)=O)c2)C(=O)C1=Cc1ccc(N2CCN(C(=O)OC(C)(C)C)CC2)cc1 [Compound 180] |  | < 40 | 10 to 20 | 
32 | COc1cc(/C=C2\C(=O)N(c3ccc(C(=O)O)cc3)N=C2C)ccc1OCC(=O)OC(C)(C)C [Compound 346] | < 10 | 10 to 20 |  | 
33 | CC1=NN(c2ccc(S(N)(=O)=O)cc2)C(=O)C1=Cc1ccc(N2CCN(C(=O)OC(C)(C)C)CC2)cc1 [Compound 179] |  | < 40 | 10 to 20 | 
34 | O=C(O)c1ccc(N2N=C(c3ccncc3)/C(=C/c3ccc(CO)o3)C2=O)cc1 [Compound 334] | < 10 | < 40 |  | 
35 | CC1=NN(c2ccc(S(N)(=O)=O)cc2)C(=O)C1=Cc1ccc(NC(=O)c2ccc(F)cc2)cc1 [Compound 226] |  | 10 to 20 | < 10 | 
36 | COC(=O)N1CCN(c2ccc(C=C3C(=O)N(c4ccc(C(=O)O)cc4)N=C3c3ccoc3)cc2)CC1 [Compound 245] |  | 10 to 20 | < 10 | 
37 | CC1=NN(c2ccc(S(N)(=O)=O)cc2)C(=O)C1=Cc1ccc(NC(=O)c2ccccc2F)cc1 [Compound 225] |  | < 40 | < 10 | 
38 | CC1=NN(c2ccc(C(=O)O)cc2)C(=O)C1=Cc1ccc(N2CCN(c3ccccc3)CC2)cc1 [Compound 430] |  | < 10 | < 10 | 
39 | COc1cc(/C=C2\C(=O)N(c3ccc(C(=O)O)cc3)N=C2C)ccc1OCc1c(C)noc1C [Compound 391] | < 10 | 10 to 20 |  | 
40 | COCCC1=NN(c2ccc(C(=O)O)cc2)C(=O)/C1=C\c1ccc(-c2ccccc2F)o1 [Compound 522] | < 10 | < 10 |  | 
41 | O=C(O)c1ccc(N2N=C(c3ccoc3)C(=Cc3ccc(N4CCN(c5ccccc5)CC4)cc3)C2=O)cc1 [Compound 433] |  | < 10 | < 10 | 
42 | CC(C)=CC(=O)Nc1ccc(C=C2C(=O)N(c3ccc(S(N)(=O)=O)cc3)N=C2C)cc1 [Compound 232] |  | < 40 | 10 to 20 | 
43 | COc1ccc(C2=NN(c3ccc(C(=O)O)cc3)C(=O)/C2=C\c2ccc(OCc3ccccc3)c(OC)c2)cc1OC [Compound 277] | < 10 | 10 to 20 |  | 
44 | CN1CCN(c2ccc(/C=C3\C(=O)N(c4ccc(C(=O)O)cc4)N=C3C3CC3)cc2)CC1 [Compound 321] | < 10 | < 40 |  | 
45 | COCC1=NN(c2ccc(C(=O)O)cc2)C(=O)C1=Cc1ccc(OCc2ccccc2)c(OC)c1 [Compound 234, 4-[4-(Benzyloxy-3-methoxy-benzylidine)-3-methoxymethyl-5-oxo-4,5-dihydroxy-pyrazol-1-yl] benzoic acid] |  | < 10 |  | < 10
